# Measured values: US5707966A, “Antithrombotic agents” (Eli Lilly and Company, priority 1995, dated 1998)
# Counter-ions that a name gives are not always drawn. Like-named read-outs stand apart in the source and are kept apart here.
# Tests used:
# Type in all cases: biochemical
# [1] = biological target: T1, t-PA (Homo sapiens, UniProt P00750); experiment: Kass with t-PA, chromogenic substrate; settings: substrate H-D-Ile-Pro-Arg-p-nitroanilide
# T1 construct: purchased American Diagnostica, Greenwich, Conn
# Protocol: (§1) By substantially following the procedures described above for human thrombin, and using other human blood coagulation system serine proteases and proteases of the fibrinolytic system with the appropriate chromogenic substrates, identified below, selectivity of the compounds of the present invention with respect to the coagulation factor serine proteases and with respect to the fibrinolytic system serine proteases are evaluated as well as their substantial lack of interference with serine proteases of the fibrinolytic system. Thrombin inhibitors preferably should spare fibrinolysis induced by urokinase, tissue plasminogen activator (t-PA) and streptokinase. This would be important to the therapeutic use of such agents as an adjunct to streptokinase, t-PA or urokinase thrombolytic therapy and to the use of such agents as an endogenous fibrinolysis-sparing (with respect to t-PA and urokinase) antithrombotic agent. In addition to the lack of interference with the amidase activity of the fibrinolytic proteases, such fibrinolytic system sparing can be studied by the use of human plasma clots and their lysis by the respective fibrinolytic plasminogen activators.
# (§2) Human plasmin is purchased from Boehringer Mannheim, Indianapolis, Ind.; nt-PA is purchased as single chain activity reference from American Diagnostica, Greenwich, Conn. modified-t-PA6 (mt-PA6) is prepared at Eli Lilly and Company by procedure known in the art (See, Burck, et al., J. Biol. Chem., 265, […] (1990). Plasmin chromogenic substrate H-D-Val-Leu-Lys-p-nitroanilide and tissue plasminogen activator (t-PA) substrate H-D-Ile-Pro-Arg-p-nitroanilide are purchased from Kabi Vitrum, Stockholm, Sweden.
# [2] = biological target: T2, factor Xa (Homo sapiens, UniProt P00742); experiment: Kass with factor Xa, chromogenic substrate
# T2 construct: Human factors X, Xa, IXa, XIa, and XIIa are purchased; purchased Enzyme Research Laboratories, South Bend, Ind
# [3] = biological target: T3, Bovine trypsin (Bos taurus, UniProt P00760); experiment: Kass with trypsin, chromogenic substrate
# T3 construct: Bovine trypsin is purchased; purchased Worthington Biochemicals, Freehold, N.J
# T3 sequence (P00760 24-246): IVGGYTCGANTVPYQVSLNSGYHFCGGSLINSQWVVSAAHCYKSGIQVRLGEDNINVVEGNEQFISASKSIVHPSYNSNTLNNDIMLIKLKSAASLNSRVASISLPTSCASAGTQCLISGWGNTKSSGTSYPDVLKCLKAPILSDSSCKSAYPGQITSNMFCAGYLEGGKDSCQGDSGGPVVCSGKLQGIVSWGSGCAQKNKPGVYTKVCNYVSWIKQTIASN
# [4] = biological target: T4, Human plasmin (Homo sapiens, UniProt P00747); experiment: Kass with plasmin, chromogenic substrate
# T4 construct: Human plasmin is purchased; purchased Boehringer Mannheim, Indianapolis, Ind
# Protocol: as §1, §2
# [5] = tested on: Human plasma; experiment: Human plasma anticoagulation, prothrombin time (PT); settings: concentration required to double the PT, linear extrapolation
# How it was run: (§3)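 Compound was spiked over a wide concentration range into citrated human plasma, and clotting times were read on a coagulation instrument. PT was started with saline plus Thromboplastin-C. APTT used 120 s preincubation with Actin, then 0.02M CaCl2. TT used saline plus bovine thrombin (10 NIH units/mL). Doubling concentrations were obtained by linear extrapolation.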
# [6] = tested on: Human plasma; experiment: Human plasma anticoagulation, activated partial thromboplastin time (APTT); settings: concentration required to double the APTT, linear extrapolation
# How it was run: as §3
# [7] = biological target: Human Thrombin (Homo sapiens, UniProt P00734); experiment: Inhibition of amidase activity of thrombin (Kass)
# [8] = tested on: Human plasma; experiment: Human plasma anticoagulation, thrombin time (TT); settings: concentration required to double the thrombin time, linear extrapolation
# How it was run: as §3
# [9] = substrate N-Benzoyl-Ile-Glu-Gly-Arg-p-nitroanilide
# [10] = substrate N-Benzoyl-Phe-Val-Arg-p-nitroanilide
# [11] = substrate H-D-Val-Leu-Lys-p-nitroanilide
# [12] = mean over a range of concentrations, […]
# T2 sequence (P00742 235-488 limits assumed): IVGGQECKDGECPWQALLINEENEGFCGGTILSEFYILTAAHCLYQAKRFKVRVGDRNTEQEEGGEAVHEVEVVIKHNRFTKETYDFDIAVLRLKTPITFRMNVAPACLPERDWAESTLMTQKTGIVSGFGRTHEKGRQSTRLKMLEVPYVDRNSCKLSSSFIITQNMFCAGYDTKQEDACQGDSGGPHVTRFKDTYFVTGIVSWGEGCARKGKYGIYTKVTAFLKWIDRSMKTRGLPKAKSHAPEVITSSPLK
# T2 sequence (P00742 41-179 partner limits assumed): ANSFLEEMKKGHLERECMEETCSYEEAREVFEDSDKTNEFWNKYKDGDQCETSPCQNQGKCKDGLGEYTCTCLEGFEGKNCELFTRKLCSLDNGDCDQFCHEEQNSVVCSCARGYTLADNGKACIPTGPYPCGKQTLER
# T4 sequence (P00747 97-810): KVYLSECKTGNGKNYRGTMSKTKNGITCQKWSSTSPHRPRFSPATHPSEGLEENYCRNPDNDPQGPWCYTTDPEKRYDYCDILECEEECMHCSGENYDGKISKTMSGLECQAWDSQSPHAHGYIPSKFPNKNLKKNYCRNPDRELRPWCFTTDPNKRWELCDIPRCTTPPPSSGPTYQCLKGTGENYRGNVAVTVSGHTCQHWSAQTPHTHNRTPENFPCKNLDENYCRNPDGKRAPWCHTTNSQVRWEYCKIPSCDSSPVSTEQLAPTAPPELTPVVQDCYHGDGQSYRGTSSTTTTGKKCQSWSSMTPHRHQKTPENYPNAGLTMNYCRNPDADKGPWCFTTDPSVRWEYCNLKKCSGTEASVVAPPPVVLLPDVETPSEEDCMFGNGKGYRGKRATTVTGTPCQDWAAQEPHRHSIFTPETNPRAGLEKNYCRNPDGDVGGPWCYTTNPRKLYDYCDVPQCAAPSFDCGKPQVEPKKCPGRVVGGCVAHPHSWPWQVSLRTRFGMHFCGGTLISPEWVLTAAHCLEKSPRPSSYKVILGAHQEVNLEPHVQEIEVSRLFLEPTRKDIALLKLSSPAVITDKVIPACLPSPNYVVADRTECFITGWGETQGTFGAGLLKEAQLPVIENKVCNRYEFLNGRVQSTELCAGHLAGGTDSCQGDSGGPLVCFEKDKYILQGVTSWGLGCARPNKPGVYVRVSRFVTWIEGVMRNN
# T4 sequence (P00747 97-580 partner limits assumed): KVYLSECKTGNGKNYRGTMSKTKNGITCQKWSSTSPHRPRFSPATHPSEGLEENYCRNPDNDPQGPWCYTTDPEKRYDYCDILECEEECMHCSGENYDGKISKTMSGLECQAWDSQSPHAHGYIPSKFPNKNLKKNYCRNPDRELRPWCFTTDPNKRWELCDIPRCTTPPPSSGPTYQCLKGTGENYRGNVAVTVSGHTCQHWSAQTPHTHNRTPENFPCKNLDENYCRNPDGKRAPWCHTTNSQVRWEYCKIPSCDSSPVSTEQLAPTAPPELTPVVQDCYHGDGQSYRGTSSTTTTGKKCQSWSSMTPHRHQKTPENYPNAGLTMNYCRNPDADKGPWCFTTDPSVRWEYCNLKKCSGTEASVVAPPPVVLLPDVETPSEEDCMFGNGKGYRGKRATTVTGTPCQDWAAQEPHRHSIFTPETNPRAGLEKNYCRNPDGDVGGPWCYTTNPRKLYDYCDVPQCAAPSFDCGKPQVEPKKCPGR
# T1 sequence (P00750 36-562): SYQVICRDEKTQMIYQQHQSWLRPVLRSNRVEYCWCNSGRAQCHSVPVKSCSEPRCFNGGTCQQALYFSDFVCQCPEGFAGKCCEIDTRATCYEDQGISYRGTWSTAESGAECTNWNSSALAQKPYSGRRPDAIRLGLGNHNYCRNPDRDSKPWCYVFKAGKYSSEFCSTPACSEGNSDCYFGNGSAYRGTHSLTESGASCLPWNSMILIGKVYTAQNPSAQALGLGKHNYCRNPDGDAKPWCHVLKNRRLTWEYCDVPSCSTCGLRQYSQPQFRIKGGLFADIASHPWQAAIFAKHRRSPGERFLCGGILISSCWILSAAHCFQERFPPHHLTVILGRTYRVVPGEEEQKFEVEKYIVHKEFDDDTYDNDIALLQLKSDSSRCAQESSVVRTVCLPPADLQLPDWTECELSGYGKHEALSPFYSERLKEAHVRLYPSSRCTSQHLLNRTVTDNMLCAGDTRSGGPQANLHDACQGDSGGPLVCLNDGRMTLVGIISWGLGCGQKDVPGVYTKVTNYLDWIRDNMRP
Compound,Kass t-PA [1],"Kass Xa [2, 9]","Kass Trypsin [3, 10]","Kass Plasmin [4, 11]",Human Plasma Anticoagulation 2× Clotting time PT [5],Human Plasma Anticoagulation 2× Clotting time APTT [6],"Kass Human Thrombin [7, 12]",Human Plasma Anticoagulation 2× Clotting time TT [8],Kass Human Thrombin [7],Kass Xa [2],Kass Trypsin [3],Kass Plasmin [4]
1-Piq-Pro-p-NHCH2 C6 H4 C(NH)NH2.2HCl [Example 18],0.0094 × 10^6 (L/mole),0.21 × 10^6 (L/mole),14 × 10^6 (L/mole),0.085 × 10^6 (L/mole),170 ng/mL,79 ng/mL,180 × 10^6 (L/mole),7 ng/mL,,,,
"N=C(N)c1ccc(CNC(=O)[C@@H]2C[C@@H]3CCCC[C@@H]3N2C(=O)[C@H]2CCCCN2)cc1 (relative stereo) [Example 20, D-hPro-Ohi-p-NHCH2 C6 H4 C(NH)NH2.3HCl]",0.0077 × 10^6 (L/mole),0.10 × 10^6 (L/mole),19 × 10^6 (L/mole),0.10 × 10^6 (L/mole),600 ng/mL,550 ng/mL,,62 ng/mL,10,,,
"CCS(=O)(=O)N[C@@H](C(=O)N1[C@H](C(=O)NCc2ccc(C(=N)N)cc2)C[C@@H]2CCCC[C@@H]21)c1ccccc1 (relative stereo) [Example 44, EtSO2 -Phg-cis-Ohi-p-NHCH2 C6 H4 C(NH)NH2.HCl]",0.04 × 10^6 (L/mole),,,,170 ng/mL,100 ng/mL,,4 ng/mL,,0.66,"2,600",1.8
"CCS(=O)(=O)N[C@H](Cc1ccccc1)C(=O)N1[C@H](C(=O)NCc2ccc(C(=N)N)cc2)C[C@@H]2CCCC[C@@H]21 (relative stereo) [Example 45, EtSO2 -Phe-cis-Ohi-p-NHCH2 C6 H4 C(NH)NH2.HCl]",0.77 × 10^6 (L/mole),1.5 × 10^6 (L/mole),110 × 10^6 (L/mole),1.1 × 10^6 (L/mole),330 ng/mL,200 ng/mL,,8 ng/mL,610,,,
"N=C(N)c1ccc(CNC(=O)[C@@H]2C[C@@H]3CCCC[C@@H]3N2C(=O)[C@@H](CC2CCCCC2)NCC(=O)O)cc1 (relative stereo) [Example 49, HOOCCH2 -D-Cha-cis-Ohi-p-NHCH2 C6 H4 C(NH)NH2.HCl]",0.04 × 10^6 (L/mole),3.4 × 10^6 (L/mole),940 × 10^6 (L/mole),0.84 × 10^6 (L/mole),130 ng/mL,130 ng/mL,,5 ng/mL,400,,,
CC(C)CC[C@H]1C[C@@H](C(=O)NCc2ccc(C(=N)N)cc2)N(C(=O)[C@@H](CC2CCCCC2)NCC(=O)O)C1 (relative stereo) [Example 50],0.04 × 10^6 (L/mole),4.3 × 10^6 (L/mole),"2,200 × 10^6 (L/mole)",1.8 × 10^6 (L/mole),420 ng/mL,460 ng/mL,40 × 10^6 (L/mole),35 ng/mL,,,,
"N=C(N)c1cccc(CNC(=O)[C@@H]2CCCN2C(=O)[C@H](N)Cc2ccccc2)c1 [Example 16, D-Phe-Pro-m-NHCH2 C6 H4 C(NH)NH2.0.75HCl]",0.0012 × 10^6 (L/mole),0.0051 × 10^6 (L/mole),0.02 × 10^6 (L/mole),0.0017 × 10^6 (L/mole),"8,500 ng/mL","8,600 ng/mL",0.97 × 10^6 (L/mole),650 ng/mL,,,,
"N=C(N)c1ccc(CNC(=O)[C@@H]2CCCN2C(=O)[C@H]2C[C@H]3CCCC[C@H]3CN2)cc1 [Example 19, D-3-Piq-Pro-p-NHCH2 C6 H4 C(NH)NH2.3HCl]",0.0056 × 10^6 (L/mole),0.14 × 10^6 (L/mole),41 × 10^6 (L/mole),0.16 × 10^6 (L/mole),540 ng/mL,300 ng/mL,,58 ng/mL,,,,
"CCS(=O)(=O)N[C@H](Cc1ccccc1)C(=O)N1CCC[C@H]1C(=O)NCc1cccc(C(=N)N)c1 [Example 24, EtSO2 -D-Phe-Pro-m-NHCH2 --C6 H4 C(=NH)NH2.HCl]",< 0.001 × 10^6 (L/mole),< 0.001 × 10^6 (L/mole),0.03 × 10^6 (L/mole),< 0.001 × 10^6 (L/mole),"25,000 ng/mL","25,900 ng/mL",0.78 × 10^6 (L/mole),"1,000 ng/mL",,,,
"CCS(=O)(=O)N[C@H](Cc1ccccc1)C(=O)N1CCC[C@H]1C(=O)NCCc1cccc(C(=N)N)c1 [Example 27, EtSO2 -D-Phe-Pro-m-NHCH2 CH2 --C6 H4 C(=NH)NH2.HCl]",0.02 × 10^6 (L/mole),0.02 × 10^6 (L/mole),0.02 × 10^6 (L/mole),< 0.001 × 10^6 (L/mole),"27,000 ng/mL","27,800 ng/mL",0.29 × 10^6 (L/mole),"1,940 ng/mL",,,,
"N=C(N)c1ccc(CCNC(=O)[C@@H]2CCCN2C(=O)[C@@H]2NCC[C@@H]3CCCC[C@@H]32)cc1 [Example 28, 1-Piq-Pro-p-NHCH2 CH2 --C6 H4 C(=NH)NH2.2HCl]",< 0.001 × 10^6 (L/mole),0.01 × 10^6 (L/mole),0.11 × 10^6 (L/mole),< 0.001 × 10^6 (L/mole),"8,300 ng/mL","8,100 ng/mL",0.95 × 10^6 (L/mole),520 ng/mL,,,,
"N=C(N)c1cccc(CCNC(=O)[C@@H]2CCCN2C(=O)[C@@H]2NCC[C@@H]3CCCC[C@@H]32)c1 [Example 29, 1-Piq-Pro-m-NHCH2 CH2 --C6 H4 C(=NH)NH2.2HCl]",< 0.001 × 10^6 (L/mole),0.02 × 10^6 (L/mole),0.02 × 10^6 (L/mole),< 0.001 × 10^6 (L/mole),"15,800 ng/mL","9,800 ng/mL",0.76 × 10^6 (L/mole),750 ng/mL,,,,
"CCS(=O)(=O)N[C@H](Cc1ccccc1)C(=O)N1CCC[C@H]1C(=O)NCCCc1ccc(C(=N)N)cc1 [Example 30, EtSO2 -D-Phe-Pro-p-NHCH2 CH2 CH2 --C6 H4 C(=NH)NH2.HCl]",< 0.001 × 10^6 (L/mole),0.02 × 10^6 (L/mole),0.03 × 10^6 (L/mole),< 0.001 × 10^6 (L/mole),"14,400 ng/mL","14,000 ng/mL",0.55 × 10^6 (L/mole),"1,000 ng/mL",,,,
"CCS(=O)(=O)N[C@H](Cc1ccccc1)C(=O)N1CCC[C@H]1C(=O)NCCCc1cccc(C(=N)N)c1 [Example 31, EtSO2 -D-Phe-Pro-m-NHCH2 CH2 CH2 --C6 H4 C(=NH)NH2.HCl]",< 0.001 × 10^6 (L/mole),0.14 × 10^6 (L/mole),0.05 × 10^6 (L/mole),< 0.001 × 10^6 (L/mole),"30,000 ng/mL","34,500 ng/mL",0.07 × 10^6 (L/mole),"10,800 ng/mL",,,,
